Results published in PubChem BioAssay (NCI).
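Method: 48-hour compound exposure of cells in 96-well plates, five concentrations, linear interpolation of endpoints. Here, GI50 denotes the concentration required for 50% inhibition of growth. The concentration for full growth arrest is given as TGI.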

Legend:
Test in all cases: NCI-60 cell line screen, 48 h
786-0 renal = tested on: 786-0 renal
A498 renal = tested on: A498 renal
A549 NSCLC = tested on: A549 NSCLC
ACHN renal = tested on: ACHN renal
BT-549 breast = tested on: BT-549 breast
CAKI-1 renal = tested on: CAKI-1 renal
CCRF-CEM leukemia = tested on: CCRF-CEM leukemia
COLO 205 colon = tested on: COLO 205 colon
DU-145 prostate = tested on: DU-145 prostate
HCC-2998 colon = tested on: HCC-2998 colon
HCT-116 colon = tested on: HCT-116 colon
HCT-15 colon = tested on: HCT-15 colon
HL-60(TB) leukemia = tested on: HL-60(TB) leukemia
HOP-62 NSCLC = tested on: HOP-62 NSCLC
HOP-92 NSCLC = tested on: HOP-92 NSCLC
HS 578T breast = tested on: HS 578T breast
HT29 colon = tested on: HT29 colon
IGROV1 ovarian = tested on: IGROV1 ovarian
K-562 leukemia = tested on: K-562 leukemia
KM12 colon = tested on: KM12 colon
LOX IMVI melanoma = tested on: LOX IMVI melanoma
M14 melanoma = tested on: M14 melanoma
MALME-3M melanoma = tested on: MALME-3M melanoma
MCF7 breast = tested on: MCF7 breast
MDA-MB-231 breast = tested on: MDA-MB-231 breast
MDA-MB-435 = tested on: MDA-MB-435
MOLT-4 leukemia = tested on: MOLT-4 leukemia
NCI-H226 lung = tested on: NCI-H226 lung
NCI-H23 lung = tested on: NCI-H23 lung
NCI-H460 lung = tested on: NCI-H460 lung
NCI-H522 lung = tested on: NCI-H522 lung
NCI/ADR-RES ovarian = tested on: NCI/ADR-RES ovarian
OVCAR-3 ovarian = tested on: OVCAR-3 ovarian
OVCAR-4 ovarian = tested on: OVCAR-4 ovarian
OVCAR-5 ovarian = tested on: OVCAR-5 ovarian
OVCAR-8 ovarian = tested on: OVCAR-8 ovarian
PC-3 prostate = tested on: PC-3 prostate
RPMI-8226 leukemia = tested on: RPMI-8226 leukemia
RXF 393 renal = tested on: RXF 393 renal
SF-268 CNS = tested on: SF-268 CNS
SF-295 CNS = tested on: SF-295 CNS
SF-539 CNS = tested on: SF-539 CNS
SK-MEL-2 melanoma = tested on: SK-MEL-2 melanoma
SK-MEL-28 melanoma = tested on: SK-MEL-28 melanoma
SK-MEL-5 melanoma = tested on: SK-MEL-5 melanoma
SK-OV-3 ovarian = tested on: SK-OV-3 ovarian
SN12C renal = tested on: SN12C renal
SNB-19 CNS = tested on: SNB-19 CNS
SNB-75 CNS = tested on: SNB-75 CNS
SR leukemia = tested on: SR leukemia
SW-620 colon = tested on: SW-620 colon
T-47D breast = tested on: T-47D breast
TK-10 renal = tested on: TK-10 renal
U251 CNS = tested on: U251 CNS
UACC-257 melanoma = tested on: UACC-257 melanoma
UACC-62 melanoma = tested on: UACC-62 melanoma
UO-31 renal = tested on: UO-31 renal

## CC(NNC(=S)N1CCCCCC1)c1ccc2ccccc2n1 (centres undefined)
786-0 renal
  GI50: 3.38 µM
  TGI: 16.8 µM
A498 renal
  GI50: 4.61 µM
  TGI: 22.1 µM
A549 NSCLC
  GI50: 1.13 µM
  TGI: 27 µM
ACHN renal
  GI50: 0.66 µM
  TGI: 14.6 µM
BT-549 breast
  GI50: 7.45 µM
  TGI: 58.9 µM
CAKI-1 renal
  GI50: 0.456 µM
  TGI: 10.8 µM
CCRF-CEM leukemia
  GI50: 0.765 µM
  TGI: > 100 µM
COLO 205 colon
  GI50: 0.284 µM
  TGI: 19 µM
DU-145 prostate
  GI50: 2.22 µM
  TGI: 18.2 µM
HCC-2998 colon
  GI50: 3.35 µM
  TGI: 22.6 µM
HCT-116 colon
  GI50: 0.688 µM
  TGI: 17.8 µM
HCT-15 colon
  GI50: 1.06 µM
  TGI: 51.6 µM
HL-60(TB) leukemia
  GI50: 0.363 µM
  TGI: 12.1 µM
HOP-62 NSCLC
  GI50: 3.93 µM
  TGI: > 100 µM
HOP-92 NSCLC
  GI50: 0.769 µM
  TGI: 34.3 µM
HS 578T breast
  GI50: 14.5 µM
  TGI: > 100 µM
HT29 colon
  GI50: 2.54 µM
  TGI: 31.1 µM
IGROV1 ovarian
  GI50: 1.85 µM
  TGI: 51.3 µM
K-562 leukemia
  GI50: 2.14 µM
  TGI: > 100 µM
KM12 colon
  GI50: 2.57 µM
  TGI: 41.4 µM
LOX IMVI melanoma
  GI50: 2.56 µM
  TGI: 15.5 µM
M14 melanoma
  GI50: 1.85 µM
  TGI: 11.7 µM
MALME-3M melanoma
  GI50: 3.15 µM
  TGI: 37.8 µM
MCF7 breast
  GI50: 0.338 µM
  TGI: 15.2 µM
MDA-MB-231 breast
  GI50: 2.03 µM
  TGI: 20.5 µM
MDA-MB-435
  GI50: 2.25 µM
  TGI: 21.4 µM
MOLT-4 leukemia
  GI50: 2.18 µM
  TGI: > 55.5 µM
NCI-H226 lung
  GI50: 2.74 µM
  TGI: 23.2 µM
NCI-H23 lung
  GI50: 11.8 µM
  TGI: > 87.1 µM
NCI-H460 lung
  GI50: 1.05 µM
  TGI: > 78.9 µM
NCI-H522 lung
  GI50: 2.69 µM
  TGI: 21.6 µM
NCI/ADR-RES ovarian
  GI50: 2.29 µM
  TGI: > 100 µM
OVCAR-3 ovarian
  GI50: 0.41 µM
  TGI: 18.8 µM
OVCAR-4 ovarian
  GI50: 0.0701 µM
  TGI: 13.8 µM
OVCAR-5 ovarian
  GI50: 9.5 µM
  TGI: 38.5 µM
OVCAR-8 ovarian
  GI50: 1.06 µM
  TGI: > 58.7 µM
PC-3 prostate
  GI50: 2.07 µM
  TGI: > 63 µM
RPMI-8226 leukemia
  GI50: 5.36 µM
  TGI: > 100 µM
RXF 393 renal
  GI50: 4.7 µM
  TGI: 21.2 µM
SF-268 CNS
  GI50: 1.72 µM
  TGI: 43.7 µM
SF-295 CNS
  GI50: 0.843 µM
  TGI: 13.2 µM
SF-539 CNS
  GI50: 1.68 µM
  TGI: 12.6 µM
SK-MEL-2 melanoma
  GI50: 13.8 µM
  TGI: 41.5 µM
SK-MEL-28 melanoma
  GI50: 5.18 µM
  TGI: 40.4 µM
SK-MEL-5 melanoma
  GI50: 1.95 µM
  TGI: 14.8 µM
SK-OV-3 ovarian
  GI50: 6.24 µM
  TGI: 26.9 µM
SN12C renal
  GI50: 1.84 µM
  TGI: > 57.3 µM
SNB-19 CNS
  GI50: 4.16 µM
  TGI: > 100 µM
SNB-75 CNS
  GI50: 12.5 µM
  TGI: 27.5 µM
SR leukemia
  GI50: 0.759 µM
  TGI: > 48.9 µM
SW-620 colon
  GI50: 3.23 µM
  TGI: 33.2 µM
T-47D breast
  GI50: 1.91 µM
  TGI: 28.7 µM
TK-10 renal
  GI50: 1.21 µM
  TGI: 21 µM
U251 CNS
  GI50: 0.92 µM
  TGI: 20.4 µM
UACC-257 melanoma
  GI50: 1.74 µM
  TGI: 17 µM
UACC-62 melanoma
  GI50: 1.69 µM
  TGI: 11.5 µM
UO-31 renal
  GI50: 0.478 µM
  TGI: 14.1 µM
